This is an account of results in article PMC7918733, “Biological Profiling of Semisynthetic C19-Functionalized Ferruginol and Sugiol Analogues” (Antibiotics, 2021).

In data set [1] the test system is A549 (Lung). Particulars: cited from earlier work.
In data set [2] the test system is A549 (Lung). As to the kind of experiment: Antiproliferative SRB assay. The format is cell-based, human. Here is the method: (§1) Cells, cultures and the activity test of abietane analogs followed reported methods. The SRB assay was performed as previously described, and the antiproliferative activity was given as GI50 values, which were calculated according to NCI formulas.

Data set [3] concerns SW1573 (Lung). In words: Antiproliferative SRB assay. The format is cell-based, human. Here is the method: as §1
Background: Sulforhodamine B stains cellular protein and so reports cell mass.

Data set [4] has as its system WiDr (Colon). In words: Antiproliferative SRB assay. The format is cell-based, human. As to conditions: mean ± SD of at least two experiments. As to the method: as §1
Data set [5] has as its system HBL-100 (Breast). In words: Antiproliferative SRB assay. The format is cell-based. As to conditions: Homo sapiens, mean ± SD of at least two experiments. Here is the method: as §1
The subject of data set [6] is HeLa (Cervix). In words: Antiproliferative SRB assay. As to conditions: Homo sapiens, mean ± SD of at least two experiments. The data set is classed as cell-based. As to the method:
as §1

For data set [7], the system named is T-47D (Breast). As to the kind of experiment: Antiproliferative SRB assay. The data set is classed as cell-based. As to conditions: Homo sapiens, T47D, mean ± SD of at least two experiments. As to the method:
as §1

The target of data set [8] is T1, GABAA receptor subtype (α1β2γ2S) (Homo sapiens, UniProt P14867+P18507+P47870). On the set-up: expressed in transfected cells; host or cells: Xenopus laevis oocytes. As to conditions: cited from earlier work.
In data set [9] the target is T1, GABAA receptor subtype (α1β2γ2S). In words: Two-microelectrode voltage-clamp in Xenopus laevis oocytes.
Experimental: All molecules were tested at concentrations of 10, 100 μM and compared with dehydroabietic acid (DHA) (3) as a reference [16].
Data set [10] deals with BJ. As to the kind of experiment: Cytotoxicity on mammalian cell lines. The data set is classed as cell-based. Particulars: Homo sapiens, read-out: BJ EC50. Here is the method: (§2) Assays were performed by using previously described DNA stain-based assay and methods, including cytotoxicity assays.
Data set [11] has as its system HEK293. In words: Cytotoxicity on mammalian cell lines. The format is cell-based. As to the method:
as §2

Data set [12] has as its system HepG2. As to the kind of experiment: Cytotoxicity on mammalian cell lines. The data set is classed as cell-based. As to the method: as §2
Data set [13] deals with RAJI. In words: Cytotoxicity on mammalian cell lines. The format is cell-based. As to conditions: Homo sapiens, read-out: RAJI EC50. As to the method:
as §2

For data set [14], the system named is HBL-100 (Breast). Particulars: cited from earlier work.
Data set [15] relates to HeLa (Cervix). Particulars: cited from earlier work.
Data set [16] concerns SW1573 (Lung). Particulars: cited from earlier work.
Data set [17] has as its system T-47D (Breast). As to conditions: cited from earlier work.
Data set [18] deals with WiDr (Colon). Particulars: cited from earlier work.
Data set [19] relates to Macrophages J774. As to conditions: cited from earlier work.
The test system of data set [20] is P. falciparum 3D7 strain. As to the kind of experiment: Antiplasmodial DNA stain-based growth assay. The data set is classed as cell-based. As to conditions: Plasmodium falciparum, 3D7, 72 h, read-out: P. falciparum 3D7 EC50. As to the method:
as §2

Data set [21] has as its system P. falciparum K1 strain. In words: Antiplasmodial DNA stain-based growth assay. The format is cell-based. Particulars: Plasmodium falciparum, K1, 72 h, read-out: P. falciparum K1 EC50. Here is the method: as §2
Data set [22] deals with L. guyanensis promastigotes. On the set-up: method as in PMID 30840453. As to conditions: C18-congeners; cited from earlier work.
Setting [23] is: mean ± SD of at least two experiments.

Like-named read-outs stand apart in the source and are kept apart here. Bounds are passed on as bounds.

T1 sequence (P14867 28-456): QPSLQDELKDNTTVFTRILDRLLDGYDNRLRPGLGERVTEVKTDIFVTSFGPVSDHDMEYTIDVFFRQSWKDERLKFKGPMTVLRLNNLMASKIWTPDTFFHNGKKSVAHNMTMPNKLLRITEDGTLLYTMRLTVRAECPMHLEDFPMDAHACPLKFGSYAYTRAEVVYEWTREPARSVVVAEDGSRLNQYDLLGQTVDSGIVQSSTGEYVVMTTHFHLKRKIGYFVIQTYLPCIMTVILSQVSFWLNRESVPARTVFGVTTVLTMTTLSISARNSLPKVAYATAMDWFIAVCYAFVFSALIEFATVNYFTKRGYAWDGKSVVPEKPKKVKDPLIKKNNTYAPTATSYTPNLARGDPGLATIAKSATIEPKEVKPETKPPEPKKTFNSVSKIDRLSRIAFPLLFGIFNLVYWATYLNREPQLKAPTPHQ
T1 sequence (P47870 26-512): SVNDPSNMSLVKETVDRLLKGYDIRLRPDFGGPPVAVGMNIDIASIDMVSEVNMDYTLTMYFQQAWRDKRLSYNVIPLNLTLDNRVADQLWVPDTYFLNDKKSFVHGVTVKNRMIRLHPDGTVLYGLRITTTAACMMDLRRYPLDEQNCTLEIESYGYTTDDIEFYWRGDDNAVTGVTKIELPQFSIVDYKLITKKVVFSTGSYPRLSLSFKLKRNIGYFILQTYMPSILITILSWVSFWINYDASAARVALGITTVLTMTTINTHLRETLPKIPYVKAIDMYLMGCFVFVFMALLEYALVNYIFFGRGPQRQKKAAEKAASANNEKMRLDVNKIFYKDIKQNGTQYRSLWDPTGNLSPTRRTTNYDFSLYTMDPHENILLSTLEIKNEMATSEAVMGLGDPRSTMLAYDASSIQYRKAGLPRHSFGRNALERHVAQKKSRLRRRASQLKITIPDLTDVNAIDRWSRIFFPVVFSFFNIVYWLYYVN
T1 sequence (P18507 40-467 isoform P18507-1 limits assumed): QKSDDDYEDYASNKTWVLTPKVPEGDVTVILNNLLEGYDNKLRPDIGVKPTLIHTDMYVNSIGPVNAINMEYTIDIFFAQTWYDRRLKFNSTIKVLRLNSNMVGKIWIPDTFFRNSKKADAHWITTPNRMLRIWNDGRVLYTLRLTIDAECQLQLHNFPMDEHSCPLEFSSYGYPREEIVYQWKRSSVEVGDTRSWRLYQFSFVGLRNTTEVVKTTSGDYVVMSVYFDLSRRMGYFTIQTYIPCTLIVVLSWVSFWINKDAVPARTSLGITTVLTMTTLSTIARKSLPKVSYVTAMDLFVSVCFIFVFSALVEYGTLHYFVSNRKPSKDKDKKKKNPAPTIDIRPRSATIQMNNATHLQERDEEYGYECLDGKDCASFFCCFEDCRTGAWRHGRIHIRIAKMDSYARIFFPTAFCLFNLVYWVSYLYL

What is called GI50 is the concentration that inhibits growth by half. Turning to `CC(C)c1cc2c(cc1O)[C@@]1(C)CCCC(C)(C)[C@@H]1CC2=O` [Compound 2, sugiol], in data set [1], the GI50 is 79.8 ± 2.2 µM.
Consider `COc1cc([C@@H]2c3cc4c(cc3[C@@H](O[C@@H]3O[C@@H]5CO[C@@H](C)O[C@H]5[C@H](O)[C@H]3O)[C@H]3COC(=O)[C@H]23)OCO4)cc(OC)c1O` [etoposide, reference compound], for which the GI50 is 1.5 ± 0.3 µM in [2] (Homo sapiens, A549, mean ± SD of at least two experiments); 15 ± 1.5 µM in data set [3] (Homo sapiens, SW1573, mean ± SD of at least two experiments); 23 ± 3.1 µM in [4] (Homo sapiens, WiDr); 1.4 ± 0.1 µM in [5]; 3.3 ± 1.6 µM in data set [6]; 22 ± 5.5 µM in [7].
With `CC(C)c1ccc2c(c1)CC[C@H]1[C@@](C)(C(=O)O)CCC[C@]21C` [Compound 6, callitrisic acid], in data set [8], the “IGABA Potentiation of 10 µM (%)” value is listed as 14 ± 5% and the “IGABA Potentiation of 100 µM (%)” value is 269 ± 24%.
On to `CC(C)c1ccc2c(c1)CC[C@H]1[C@](C)(C(=O)O)CCC[C@]21C` [Compound 3, dehydroabietic acid, reference compound], for which the activation at 10 µM in [9] (read-out: IGABA Potentiation of 10 µM (%)) was 192 ± 10%. Besides, the activation at 100 µM in data set [9] (read-out: IGABA Potentiation of 100 µM (%)) was 789 ± 82%.
In general, EC50 refers to the concentration needed to bring the measured effect to its halfway point. Take `CC(C)=CCC[C@]1(C)C=Cc2c(O)c3c(c(CC=C(C)C)c2O1)O[C@]12C(=C[C@@H]4C[C@H]1C(C)(C)O[C@@]2(C/C=C(/C)C(=O)O)C4=O)C3=O` [Gambogic acid, reference compound]: the EC50 is 0.21 µM in [10]; 0.21 µM in data set [11] (Homo sapiens, HEK293; read-out: HEK293 EC50); more than 25 µM in data set [12] (Homo sapiens, HepG2; read-out: HepG2 EC50); 0.24 µM in data set [13].
`COC(=O)[C@@]1(C)CCC[C@]2(C)c3ccc(C(C)C)cc3CC[C@@H]12` [Compound 7, methyl callitrisate]: the concentration for 50% growth inhibition (GI50) in data set [1] was 10 ± 1.9 µM; in [14], 14 ± 5 µM; in data set [15], 16 ± 2.5 µM; in data set [16], 17 ± 2.2 µM; in data set [17], 8.8 ± 2.7 µM; in data set [18] it was 6.4 ± 2.1 µM.
Consider `COC(=O)[C@]1(C)CCC[C@]2(C)c3cc(O)c(C(C)C)cc3C(=O)C[C@@H]12` [Compound 16b], for which the GI50 in data set [1] (C18-congeners), in data set [14] (C18-congeners), in data set [15] (C18-congeners), in data set [16] (C18-congeners), in [17] (C18-congeners) and in data set [18] (C18-congeners) was more than 100 µM in each case. Further, the CC50 in data set [19] (read-out: Macrophages J774 CC50, C18-congeners) was 154 ± 49.3 µM. Also, the “IGABA Potentiation of 10 µM (%)” value in [8] (C18-congeners) is reported as 37.4 ± 12.7%. The “IGABA Potentiation of 100 µM (%)” value in data set [8] (C18-congeners) was 242.4 ± 46.0%.
On to `CCN(CC)CCCC(C)Nc1ccnc2cc(Cl)ccc12` (stereo not shown) [Chloroquine, reference compound], for which the EC50 is 0.023 µM in data set [20]; 0.69 µM in data set [21]; more than 25 µM in [10]; more than 25 µM in data set [11] (Homo sapiens, HEK293, read-out: HEK293 EC50); more than 25 µM in [12] (Homo sapiens, HepG2, read-out: HepG2 EC50); more than 25 µM in data set [13].
In the case of `N.N.[Cl][Pt][Cl]` [cisplatin, reference compound], the GI50 is 4.9 ± 0.2 µM in data set [2] (setting [23]), 2.7 ± 0.4 µM in data set [3] (setting [23]) and 23 ± 4.3 µM in data set [4].
On to `CC(C)c1cc2c(cc1O)C1(C)CCCC(C)(C(=O)O)C1CC2=O` (single isomer, unassigned; (+)) [Compound 8b, (+)-liquiditerpenoic acid A], for which the “L. guyanensis IC50 ± SD” value in data set [22] was “inactive”. In addition, the concentration for 50% growth inhibition (GI50) in data set [1] (C18-congeners) is more than 100 µM; in data set [14] (C18-congeners) it was more than 100 µM; in [15] (C18-congeners), 85 ± 21 µM; in [16] (C18-congeners), more than 100 µM; in [17] (C18-congeners) it was more than 100 µM; in data set [18] (C18-congeners) it was more than 100 µM. Besides, the CC50 in data set [19] was 219 ± 15 µM. Further, in data set [8] (C18-congeners), the “IGABA Potentiation of 10 µM (%)” value is given as −2.2 ± 4.4%. Also, in data set [8] (C18-congeners), the “IGABA Potentiation of 100 µM (%)” value is listed as −21.1 ± 7.1%.
